Activity and IC50 data for 6 molecules are collected here from ChEMBL document CHEMBL1150101, “Novel antiplatelet naphthalene from Rhamnus nakaharai” (J Nat Prod, 1995).

The nature of assay [1]: Antiplatelet activity against washed rabbit platelet assessed as thrombin-induced platelet aggregation at 300 uM administered 3 mins before thrombin challenge. Format: functional, Oryctolagus cuniculus.
Assay [2] can be described thus: Antiplatelet activity against washed rabbit platelet assessed as PAF-induced platelet aggregation at 300 uM administered 3 mins before PAF challenge. Format: functional, Oryctolagus cuniculus.
A short description of assay [3]: Antiplatelet activity against washed rabbit platelet assessed as arachidonic acid-induced platelet aggregation at 300 uM administered 3 mins before arachidonic acid challenge. Format: functional, Oryctolagus cuniculus.
Assay [4] in a line: Antiplatelet activity against washed rabbit platelet assessed as collagen-induced platelet aggregation at 300 uM administered 3 mins before collagen challenge. Format: functional, Oryctolagus cuniculus.
A short description of assay [5]: Antiplatelet activity against washed rabbit platelet assessed as arachidonic acid-induced platelet aggregation at 50 uM administered 3 mins before arachidonic acid challenge. Format: functional, Oryctolagus cuniculus.
Assay [6] can be described thus: Antiplatelet activity against washed rabbit platelet assessed as collagen-induced platelet aggregation at 50 uM administered 3 mins before collagen challenge. Format: functional, Oryctolagus cuniculus.
A short description of assay [7]: Antiplatelet activity against washed rabbit platelet assessed as thrombin-induced platelet aggregation at 50 uM administered 3 mins before thrombin challenge. Format: functional, Oryctolagus cuniculus.
The nature of assay [8]: Antiplatelet activity against human platelet assessed as epinephrine-induced platelet aggregation administered 3 mins before epinephrine challenge. Format: functional.
Assay [9] in a line: Antiplatelet activity against washed rabbit platelet assessed as PAF-induced platelet aggregation at 50 uM administered 3 mins before PAF challenge. Format: functional, Oryctolagus cuniculus.
Assay [10] in a line: Antiplatelet activity against human platelet assessed as epinephrine-induced platelet aggregation at 20 uM administered 3 mins before epinephrine challenge. Format: functional.
Assay [11] can be described thus: Antiplatelet activity against washed rabbit platelet assessed as arachidonic acid-induced platelet aggregation. Format: functional, cell-based. The following applies: Oryctolagus cuniculus.
A short description of assay [12]: Antiplatelet activity against human platelet assessed as epinephrine-induced platelet aggregation at 50 uM administered 3 mins before epinephrine challenge. Format: functional.
The nature of assay [13]: Antiplatelet activity against washed rabbit platelet assessed as arachidonic acid-induced platelet aggregation at 400 uM administered 3 mins before arachidonic acid challenge. Format: functional, Oryctolagus cuniculus.
Assay [14] can be described thus: Antiplatelet activity against washed rabbit platelet assessed as collagen-induced platelet aggregation at 400 uM administered 3 mins before collagen challenge. Format: functional, Oryctolagus cuniculus.
A short description of assay [15]: Antiplatelet activity against human platelet assessed as epinephrine-induced platelet aggregation at 100 uM administered 3 mins before epinephrine challenge. Format: functional.
The nature of assay [16]: Antiplatelet activity against washed rabbit platelet assessed as PAF-induced platelet aggregation at 400 uM administered 3 mins before PAF challenge. Format: functional, Oryctolagus cuniculus.
Assay [17] is described as follows: Antiplatelet activity against washed rabbit platelet assessed as thrombin-induced platelet aggregation at 400 uM administered 3 mins before thrombin challenge. Format: functional, Oryctolagus cuniculus.

The IC50 is the concentration at which inhibition is half-maximal.

Molecules are shown by their SMILES.

With `COc1c(-c2ccc(OC(C)=O)c(OC(C)=O)c2)oc2cc(OC(C)=O)cc(OC(C)=O)c2c1=O`, the Activity in [1] is 64.9%; in assay [2], 0%; in assay [3], 0%; in assay [4], 0%.

Take `COc1cc(O)c2c(O)c3c(cc2c1)COC3=O`: the Activity in assay [1] came to 88.1%; in assay [2], 80%; in assay [3] it was 22.1%; in [4], 41.7%.

Regarding `COc1c(-c2ccc(O)c(O)c2)oc2cc(O)cc(O)c2c1=O` [3-O-METHYLQUERCETIN], the Activity in assay [1] worked out at 81.2%; in assay [2], 50.1%; in [3], 0%; in assay [4], 5.4%.

In the case of `CC(=O)Oc1ccccc1C(=O)O` [ASPIRIN], the Activity is 0% in assay [5]; 85.4% in assay [6]; 91.9% in [7]; 39.6% in assay [8]; 90.5% in [9].

Turning to `COc1cc(OC(C)=O)cc2cc(C)c(C(C)=O)c(OC(C)=O)c12` [ISOTORACHRYSONE PERACETATE], the Activity in [10] was 83%; in [1] it was 82.7%; in assay [2] it was 86.7%; in assay [3] it was 0%; in assay [12] it was 13%; in assay [4], 16.8%. Moreover, the IC50 in assay [11] was 5.1 µM.

Take `COc1cc(O)cc2cc(C)c(C(C)=O)c(O)c12` [ISOTORACHRYSONE]: the Activity in assay [13] was 0%; in assay [14] it was 39.1%; in assay [15], 20.2%; in assay [16], 94.2%; in assay [17] it was 92.2%.
